From patent US20240252496A1, “SELECTIVE HYPOTHALAMUS PERMEABLE HDAC6 INHIBITORS FORTREATMENT OF LEPTIN-RESISTANT OBESITY” (The Children’s Medical Center Corporation, priority 2022, published 2024)

Molecular target: LepRb-HDAC6 interaction (Mus musculus (Mouse), UniProt Q9Z2V5)
Experiment: LepRb-flag / HDAC6-myc co-immunoprecipitation in HEK293 cells
Type: cell-based
Details: 200 nM for 1 h
Method: It was hypothesized that HDAC6 might interact with leptin receptor b (LepRb). To test this hypothesis, HEK293 cells were transfected with GFP or HDAC6-myc or LepRb-flag or LepRb-flag and HDAC6-myc expressing plasmids. Subsequently, cells were treated either with vehicle or HDAC6 inhibitor (ACY775) (200 nM for 1 h). Then Flag immunoprecipitation was performed to pull down LepRb and subsequently immunoblot these immune-precipitates with Myc and Flag antibodies.
HEK293 cells were transfected with GFP (as control) or HDAC6 or LepRb or LepRb and HDAC6 together. Subsequently cells were either treated with vehicle or HDAC6 inhibitor (ACY775) (200 nM for 1 h). Flag immunoprecipitation was used to pull down LepRb, followed by Myc and Flag immunoblotting.

LepRb-HDAC6 interaction, sequence (Q9Z2V5 whole entry): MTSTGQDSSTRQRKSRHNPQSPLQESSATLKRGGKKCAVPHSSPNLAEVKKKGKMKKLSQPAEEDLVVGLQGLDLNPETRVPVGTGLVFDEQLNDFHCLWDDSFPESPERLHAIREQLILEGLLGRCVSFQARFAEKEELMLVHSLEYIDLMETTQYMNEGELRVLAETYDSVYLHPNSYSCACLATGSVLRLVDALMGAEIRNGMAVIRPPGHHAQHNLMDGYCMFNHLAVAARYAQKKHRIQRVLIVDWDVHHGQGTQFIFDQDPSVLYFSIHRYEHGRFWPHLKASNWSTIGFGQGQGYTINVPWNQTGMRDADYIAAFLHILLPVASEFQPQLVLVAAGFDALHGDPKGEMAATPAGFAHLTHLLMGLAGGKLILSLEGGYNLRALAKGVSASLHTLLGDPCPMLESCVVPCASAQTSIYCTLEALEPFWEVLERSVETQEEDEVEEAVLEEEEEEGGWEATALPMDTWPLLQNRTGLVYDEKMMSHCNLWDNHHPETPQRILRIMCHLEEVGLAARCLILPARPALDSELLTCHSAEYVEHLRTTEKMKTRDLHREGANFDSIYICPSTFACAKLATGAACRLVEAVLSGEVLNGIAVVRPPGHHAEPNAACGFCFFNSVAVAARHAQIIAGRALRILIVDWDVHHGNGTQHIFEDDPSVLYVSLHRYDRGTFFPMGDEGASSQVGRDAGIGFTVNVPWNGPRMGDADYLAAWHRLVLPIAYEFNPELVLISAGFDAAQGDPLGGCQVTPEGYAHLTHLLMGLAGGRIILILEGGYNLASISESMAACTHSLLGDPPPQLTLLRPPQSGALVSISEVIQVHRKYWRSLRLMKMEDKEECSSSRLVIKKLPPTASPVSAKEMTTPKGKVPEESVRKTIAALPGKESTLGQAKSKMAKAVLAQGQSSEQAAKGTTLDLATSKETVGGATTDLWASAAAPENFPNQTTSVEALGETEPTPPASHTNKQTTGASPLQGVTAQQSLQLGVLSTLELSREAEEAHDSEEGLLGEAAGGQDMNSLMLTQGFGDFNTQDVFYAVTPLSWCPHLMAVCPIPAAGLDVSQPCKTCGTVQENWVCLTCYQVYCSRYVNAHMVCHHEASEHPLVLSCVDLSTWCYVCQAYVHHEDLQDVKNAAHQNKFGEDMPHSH

O=C(NO)c1cnc(NC2(c3cccc(F)c3)CCCCC2)nc1 [ACY775, 2-[[1-(3-fluorophenyl)cyclohexyl]amino]-N-hydroxy-5-pyrimidinecarboxamide]
HDAC6 interaction with LepRb: blocks this interaction
